Holding throughout (assay type): cell-based
Assay [1] deals with Enterobacter cloacae ATCC-222. In words: MIC (50% NHS). The following applies: ATCC222; Enterobacter cloacae ATCC-222, 50% NHS.
Assay [2] has as its system Enterobacter aerogenes ATCC-13048. In words: MIC (50% NHS). Conditions: Klebsiella aerogenes, ATCC13048; Enterobacter aerogenes ATCC-13048, 50% NHS.
Assay [3] concerns Escherichia coli ATC-25922. In words: MIC, broth microdilution. The following applies: ATC25922. An excerpt:
As used herein, the term “MIC” refers to minimum inhibitory concentrations. Minimum inhibitory concentrations may be determined by broth microdilution according to the Clinical and Laboratory Standards Institute guidelines (see, e.g., […]-A8. Methods for dilution antimicrobial susceptibility tests for bacteria that grow aerobically: approved standard, 8th Ed.; […] One example for measuring minimum inhibitory concentrations may be found in Reck et al., 2012, J. Med. Chem. 55:6916-6933, the disclosure of which is incorporated by reference. Inoculants may be incubated on blood agar plates for 18 to 24 hours. Incubation may occur at a temperature from about 35° C. to about 37° C. […] In serum supplemented experiments, the testing medium (e.g., DMSO solution) and human serum may be mixed. The ratio of testing medium to human serum may be 1:1 (vol:vol). Plates may be read by spectrophotometry at 620 nm. Unless indicated otherwise, all inhibitory concentrations recited in the specification relate to MICs. The MIC tests were based on broth microdilution method in CLSI-M7. […] Solutions of varying concentrations of DMSO were prepared in wells of a v-bottom 96-well plate (Axygen-WIPP02280). A multi-pipette was used to perform serial dilutions as necessary. From well to well, the drug concentrations were 6.4, 3.2, 1.6, 0.8, 0.4, 0.2, 0.1, 0.05, 0.025, 0.0125, 0.00625 and 0 mg/ml in DMSO. For extremely potent antibiotic, the starting concentrations were adjusted accordingly. This was the drug mother plate. Daughter plates were prepared by placing 98 μl of a testing medium into each well of a u-bottom 96-well plate (Costar 3788). An aliquot of each 2 μl solution from each well of the mother plate was then transferred into the corresponding wells of the daughter plate using a multi-pipette work station (CyBi®-SELMA). Testing media were selected based on CLSI-M7, M11 and […]. Cation adjusted Mueller Hinton Broth (CA-MHB-212322) was the testing medium for majority of bacterial species. […] The MIC values were determined and based on the standards of CLSI methods M7-A7, broth microdilution method. […]

The subject of assay [4] is Staphylococcus aureus WX1-009. Briefly: MIC (50% NHS). Conditions: WX1009; Staphylococcus aureus WX1-009, 50% NHS.
In assay [5] the test system is Proteus mirabilis ATCC-29906. Briefly: MIC (50% NHS). Conditions: ATCC29906; Proteus mirabilis ATCC-29906, 50% NHS.

Our source for the MIC values is patent publication US10654852B2, “Antibiotics and methods of using same” (THE BROAD INSTITUTE, INC., priority 2016, dated 2020).

Values after ≈ are worked out from the molar mass of the structure shown. Where only a bound is given, the exact number is not on record here.

A word on the MIC: it is the lowest concentration found to suppress growth. `CN1CC2CN(C(=O)Nc3cc(F)cc(F)c3)CC(C1)C2(O)c1ccc(-c2ccc(CN)cc2C#N)cc1` [Compound 23, (1R,5S,9r)-9-(4′-(aminomethyl)-2′-cyano-[1,1′-biphenyl]-4-yl)-N-(3,5-difluorophenyl)-9-hydroxy-7-methyl-3,7-diazabicyclo[3.3.1]nonane-3-carboxamide]: the MIC is 0.5 µg/mL (≈ 0.966 µM) in assay [1]; 1 µg/mL (≈ 1.93 µM) in assay [2]; 2 µg/mL (≈ 3.86 µM) in assay [3]; no more than 0.06 µg/mL in assay [4]; 4 µg/mL (≈ 7.73 µM) in assay [5].

For `CN1CC2CN(C(=O)Nc3cc(F)cc(F)c3)CC(C1)C2(O)c1ccc(-c2ccc(CN)cc2C#N)cn1` [Compound 24, (1R,5S,9r)-9-(5-(4-(aminomethyl)-2-cyanophenyl)pyridin-2-yl)-N-(3,5-difluorophenyl)-9-hydroxy-7-methyl-3,7-diazabicyclo[3.3.1]nonane-3-carboxamide], the MIC in assay [1] came to 0.5 µg/mL (≈ 0.964 µM); in assay [2], 2 µg/mL (≈ 3.86 µM); in assay [3], 2 µg/mL (≈ 3.86 µM); in assay [4], 0.25 µg/mL (≈ 0.482 µM); in assay [5], 32 µg/mL (≈ 61.7 µM).

Turning to `CNCc1ccc(-c2ccc(C3(O)C4CN(C)CC3CN(C(=O)Nc3cc(F)cc(F)c3)C4)nc2)c(C#N)c1` [Compound 17, (1R,5S,9r)-9-(5-(2-cyano-4-((methylamino)methyl)phenyl)pyridin-2-yl)-N-(3,5-difluorophenyl)-9-hydroxy-7-methyl-3,7-diazabicyclo[3.3.1]nonane-3-carboxamide], the minimum inhibitory concentration (MIC) was 0.45 µg/mL (≈ 0.845 µM) in assay [1]; 0.45 µg/mL (≈ 0.845 µM) in assay [2]; 4 µg/mL (≈ 7.51 µM) in assay [3]; no more than 0.11 µg/mL in assay [4]; 7.12 µg/mL (≈ 13.4 µM) in assay [5].
